Data taken from ChEMBL document CHEMBL5107956, “Natural products from mangrove sediments-derived microbes: Structural diversity, bioactivities, biosynthesis, and total synthesis” (Eur J Med Chem, 2022).
In brackets after ≈: the same amount, converted by molar mass.

Legend:
Proteus vulgaris = assay: Antibacterial activity against Proteus vulgaris MTCC 7299 assessed as bacterial growth inhibition incubated for 48 to 72 hrs by agar plate diffusion assay; type: functional; conditions: time 48-72 hrs
[1] = Inhibition of influenza A virus Neuraminidase N3 incubated for 10 mins by fluorescence based analysis
[2] = system: Trypanosoma brucei brucei; assay: Antitrypanosomal activity against Trypanosoma brucei brucei GUTat3.1 assessed as parasite growth inhibition measured after 24 hrs by alamar blue staining based analysis; type: functional, organism-based; conditions: GUTat3.1, 24 h
Leishmania donovani = assay: Antileishmanial activity against Leishmania donovani D10 promastigotes assessed as parasite growth inhibition incubated for 24 hrs by alamar blue staining based analysis; type: functional, organism-based; conditions: D10, 24 h
Plasmodium falciparum = assay: Antiplasmodial activity against Plasmodium falciparum 3D7 infected in human erythrocyte assessed as intraerythrocytic growth inhibition measured after 24 hrs by alamar blue staining based analysis; type: functional, organism-based; conditions: 3D7, Erythrocyte
Leishmania major = assay: Antileishmanial activity against Leishmania major NR48815 promastigotes assessed as parasite growth inhibition incubated for 24 hrs by alamar blue staining based analysis; type: functional, organism-based; conditions: NR48815, 24 h
Meloidogyne incognita = assay: Nematicidal activity against Meloidogyne incognita; type: functional; conditions: read-out: LD50 (the source's name)
Meloidogyne javanica = assay: Nematicidal activity against Meloidogyne javanica; type: functional; conditions: read-out: LD50 (the source's name)
[3] = system: Pseudopestalotiopsis theae; assay: Antifungal activity Pestalotiopsis theae assessed as fungal growth inhibition per disc measured after 7 days by paper disc dilution method; type: functional, organism-based
Staphylococcus aureus = assay: Antibacterial activity against Staphylococcus aureus ATCC 25923 assessed as bacterial growth inhibition; type: functional, organism-based
Vibrio splendidus = assay: Antibacterial activity against Vibrio splendidus as bacterial growth inhibition; type: functional, organism-based
[4] = target: Prostaglandin G/H synthase 2 (Homo sapiens) (UniProt P35354); assay: Inhibition of COX2 (unknown origin) at 20 nM relative to control
JeKo-1 = assay: Cytotoxicity against human JeKo-1 cells assessed as cell growth inhibition by MTT assay; type: functional, cell-based
HepG2 = assay: Cytotoxicity against human HepG2 cells assessed as cell growth inhibition by MTT assay; type: functional, cell-based
HEp-2 = assay: Cytotoxicity against human HEp-2 cells assessed as cell growth inhibition by MTT assay; type: functional, cell-based
Aspergillus niger = assay: Antifungal activity against Aspergillus niger MTCC 282 assessed as cell growth inhibition measured after 48 to 72 hrs; type: functional; conditions: time 48-72 hrs
Candida albicans [5] = assay: Antifungal activity against Candida albicans MTCC 227 assessed as cell growth inhibition measured after 48 to 72 hrs; type: functional; conditions: time 48-72 hrs
Saccharomyces cerevisiae = assay: Antifungal activity against Saccharomyces cerevisiae MTCC 170 assessed as cell growth inhibition measured after 48 to 72 hrs; type: functional; conditions: time 48-72 hrs
[6] = Antioxidant activity assessed as DPPH radical scavenging activity incubated for 30 mins by […] assay; type: functional
Acetylcholinesterase = Acetylcholinesterase (Homo sapiens, UniProt P22303); assay: Inhibition of AChE (unknown origin) using acetylthiocholine iodide as substrate measured after 30 mins by Ellman's method
HL-60 = assay: Antiproliferative activity against human HL-60 cells assessed as cell growth inhibition by MTT assay; type: functional, cell-based
P388 = assay: Cytotoxicity against mouse P388 cells assessed as cell growth inhibition by MTT assay; type: functional, cell-based
[7] = Antioxidant activity assessed as free radical scavenging activity by DPPH assay; type: functional
Candida albicans [8] = assay: Antifungal activity against Candida albicans assessed as fungal growth inhibition; type: functional
Aeromonas hydrophila = assay: Antibacterial activity against Aeromonas hydrophila assessed as cell growth inhibition; type: functional
Vibrio anguillarum = assay: Antibacterial activity against Vibrio anguillarum assessed as cell growth inhibition; type: functional
Vibrio harveyi = assay: Antibacterial activity against Vibrio harveyi assessed as cell growth inhibition; type: functional
[9] = Cytotoxicity against human ACC-MESO-1 cells assessed as cell growth inhibition measured after 48 hrs by WST-8 assay; type: functional, cell-based; conditions: ACC-MESO-1, 48 h
HeLa = assay: Cytotoxicity against human HeLa cells assessed as cell growth inhibition measured after 48 hrs by WST-8 assay; type: functional, cell-based
SF-268 = assay: Cytotoxicity against human SF-268 cells assessed as cell growth inhibition incubated for 48 hrs by MTT assay; type: functional, cell-based; conditions: SF-268, 48 h
MCF7 = assay: Cytotoxicity against human MCF7 cells assessed as cell growth inhibition incubated for 48 hrs by MTT assay; type: functional, cell-based; conditions: MCF7, 48 h
NCI-H460 = assay: Cytotoxicity against human NCI-H460 cells assessed as cell growth inhibition incubated for 48 hrs by MTT assay; type: functional, cell-based; conditions: NCI-H460, 48 h
[10] = Antioxidant activity assessed as DPPH radical scavenging activity incubated for 30 mins under dark condition; type: functional
HepG2 2.2.15 = assay: Antiproliferative activity against human HepG2.2.15 cells assessed as cell growth inhibition by MTT assay; type: functional, cell-based
Influenza A virus = assay: Antiviral activity against Influenza A virus H1N1 by CPE inhibition assay; type: functional, organism-based
A549 = assay: Cytotoxicity against human A549 cells assessed as cell growth inhibition measured after 72 hrs by MTT assay; type: functional, cell-based; conditions: A549, 72 h
Bel-7402 = assay: Cytotoxicity against human Bel-7402 cells assessed as cell growth inhibition measured after 72 hrs by MTT assay; type: functional, cell-based; conditions: Bel-7402, 72 h
K562 = assay: Cytotoxicity against human K562 cells assessed as inhibition of cell growth by MTT assay; type: functional, cell-based
Rhizoctonia solani = assay: Antifungal activity against Rhizoctonia solani assessed as inhibition of fungal growth at 10 ug/ml relative to control; type: functional

Chain of Prostaglandin G/H synthase 2 (Homo sapiens) (P35354 whole entry, looked up): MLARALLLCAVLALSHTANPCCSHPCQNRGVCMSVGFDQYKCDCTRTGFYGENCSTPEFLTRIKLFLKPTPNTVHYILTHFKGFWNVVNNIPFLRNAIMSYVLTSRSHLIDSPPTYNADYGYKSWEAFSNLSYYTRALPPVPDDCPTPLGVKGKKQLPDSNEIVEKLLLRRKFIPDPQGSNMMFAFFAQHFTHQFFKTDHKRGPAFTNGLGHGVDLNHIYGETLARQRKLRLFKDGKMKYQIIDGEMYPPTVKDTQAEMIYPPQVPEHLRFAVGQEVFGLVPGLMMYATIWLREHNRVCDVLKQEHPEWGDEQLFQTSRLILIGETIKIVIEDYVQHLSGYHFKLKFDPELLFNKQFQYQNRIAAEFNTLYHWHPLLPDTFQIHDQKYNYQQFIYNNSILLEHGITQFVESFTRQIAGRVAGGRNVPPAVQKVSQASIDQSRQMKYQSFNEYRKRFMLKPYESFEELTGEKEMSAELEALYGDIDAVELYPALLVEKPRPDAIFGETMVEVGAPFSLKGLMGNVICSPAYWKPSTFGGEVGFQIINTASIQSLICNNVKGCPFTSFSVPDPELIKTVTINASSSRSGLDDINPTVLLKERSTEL
Chain of Acetylcholinesterase (P22303 whole entry): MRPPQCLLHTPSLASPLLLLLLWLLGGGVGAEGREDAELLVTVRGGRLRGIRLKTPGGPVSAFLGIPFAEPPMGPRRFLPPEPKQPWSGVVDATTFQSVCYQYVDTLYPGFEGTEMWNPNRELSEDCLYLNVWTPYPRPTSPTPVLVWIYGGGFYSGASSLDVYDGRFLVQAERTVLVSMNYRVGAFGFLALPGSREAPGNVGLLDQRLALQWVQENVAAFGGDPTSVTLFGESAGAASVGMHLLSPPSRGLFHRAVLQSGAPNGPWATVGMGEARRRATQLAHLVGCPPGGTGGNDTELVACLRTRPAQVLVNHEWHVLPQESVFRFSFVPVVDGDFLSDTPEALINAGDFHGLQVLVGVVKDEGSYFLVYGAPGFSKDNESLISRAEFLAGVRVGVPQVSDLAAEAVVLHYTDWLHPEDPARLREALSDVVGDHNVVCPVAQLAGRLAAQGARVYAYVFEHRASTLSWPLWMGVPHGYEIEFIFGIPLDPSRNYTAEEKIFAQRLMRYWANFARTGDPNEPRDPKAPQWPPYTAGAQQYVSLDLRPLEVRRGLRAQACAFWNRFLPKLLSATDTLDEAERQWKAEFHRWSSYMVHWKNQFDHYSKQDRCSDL

`CCCOC(=O)c1ccccc1C(=O)OC(C)CC` (centres undefined) gave an MIC (Proteus vulgaris) of 4 µg/mL (≈ 15.1 µM).

`CN1C(=O)c2cc(O)ccc2NC(=O)C12O[C@H]2c1ccccc1` (some centres undefined) showed an IC50 [1] of 5.02 µM.

For `Cc1c(C)[n+](CCC(C)C)c(-c2n(CCc3ccccc3)c(C)c(C)[n+]2CCC(C)C)n1CCc1ccccc1`, the IC50 [2] was 0.78 µM, the IC50 (Leishmania donovani) was 0.75 µM and the IC50 (Plasmodium falciparum) was 9.08 µM. For the same molecule, the IC50 (Leishmania major) was 7.02 µM.

With `CCCCCC[C@@H](O)[C@@H]1C(=O)O[C@H](C)[C@@H](O)/C=C/C=C/C=C/C=C/C=C(\C)[C@@H](O)[C@H](O)[C@@H](O)C[C@H](O)C[C@H](O)C[C@@H](O)C[C@@H](O)C[C@@H]1O` the LC50 (Meloidogyne incognita) was 7.64 µg/mL (≈ 11.2 µM) and the LC50 (Meloidogyne javanica) was 7.83 µg/mL (≈ 11.4 µM).

With `COC(=O)/C=C/C1=CC(=O)CC1O` (centres undefined) the IC50 [3] was 125 µg.

Work on `CC(C)=CCc1cc(C[C@@]2(C(=O)O)OC(=O)C(OC(C)(C)[C@@H](O)Cc3cc(C[C@@]4(C(=O)O)OC(=O)C(O)=C4c4ccc(O)cc4)ccc3O)=C2c2ccc(O)cc2)ccc1O` yielded an IC50 (Staphylococcus aureus) of 1.3 µM, an IC50 (Vibrio splendidus) of 3.7 µM and an inhibition [4] of 76.5%.

`CC1=CCC[C@@]2(C)C=C3OC(=O)C(CO)=C3C[C@H]12` showed an IC50 (JeKo-1) of 8.4 µM.

In the case of `COC(=O)c1cc(O)cc2oc3cc(C)c(O)cc3c(=O)c12`, the IC50 (HepG2) is reported as 9 µg/mL (≈ 30 µM) and the IC50 (HEp-2) is reported as 8 µg/mL (≈ 26.6 µM).

With `C=CCOc1ccccc1O` [1-hydroxy-2-allyloxybenzene] the MIC (Aspergillus niger) was 200 µg/mL (≈ 1330 µM), the MIC (Candida albicans [5]) was 200 µg/mL (≈ 1330 µM) and the MIC (Saccharomyces cerevisiae) was 200 µg/mL (≈ 1330 µM). The IC50 [6] was 22 µg/mL (≈ 146 µM).

Work on `C[C@H]1CN2C(=O)[C@]34Cc5c([nH]c6c7c(ccc56)OC(C)(C)CC7=O)C(C)(C)[C@@H]3C[C@@]2(C1)C(=O)N4` yielded an IC50 (Acetylcholinesterase) of 58 µM.

With `C=CC(C)(C)c1[nH]c2ccccc2c1/C=C1\NC(=O)C2(CC(C)C=CC2CCc2c(O)cc(CC=C(C)C)c(O)c2C=O)NC1=O` (centres undefined) the IC50 (HL-60) was 4.8 µM and the IC50 (P388) was 1.83 µM.

For `COc1cc(O)cc(C2OC(=O)c3c(O)cc(C)c(O)c32)c1O` (centres undefined), the IC50 [7] was 1.23 µg/mL (≈ 3.86 µM).

`CCC(C)C1OC(=O)/C=C/C=C/C=C/C=C/C=C/CC(O)CC(O)CC(O)CC(O)CC(O)CC(O)CC(O)CC(O)/C=C/C1C` (centres undefined) gave an MIC (Candida albicans [8]) of 25 µM (≈ 16.3 µg/mL).

With `C[C@H](O)/C=C1/C(=O)O[C@H]([C@@H](C)O)[C@@H]1O` the MIC (Aeromonas hydrophila) was 8 µg/mL (≈ 39.6 µM), the MIC (Vibrio anguillarum) was 8 µg/mL (≈ 39.6 µM) and the MIC (Vibrio harveyi) was 8 µg/mL (≈ 39.6 µM).

For `O=C1CCC(=O)O[C@@H]2[C@@H](O)[C@H](O)[C@@H](COC(=O)CCC(=O)O[C@@H]3[C@@H](O)[C@H](O)[C@@H](CO1)O[C@@H]3O)O[C@@H]2O`, the IC50 [9] was 48 µM and the IC50 (HeLa) was 37 µM.

Molecule `CC(C)[C@@H](C)/C=C/[C@@H](C)[C@H]1CC[C@H]2C3=CC(=O)N(CCO)[C@@]3(O)CC[C@]12C` has an IC50 (SF-268) of 13 µg/mL (≈ 34.6 µM), an IC50 (MCF7) of 18.1 µg/mL (≈ 48.2 µM) and an IC50 (NCI-H460) of 23.5 µg/mL (≈ 62.6 µM).

Molecule `COc1c(O)c2c(c(O)c1CO)C(=O)OCC2` has an IC50 [10] of 25.7 µM.

`C[C@@H](O)Cc1cc(O)c2c(c1)C(=O)c1c(O)c(O)cc(O)c1C2=O` showed an IC50 (HepG2 2.2.15) of 4.63 µM.

With `CC[C@@H](C)C1=C2NC(=O)[C@@](O)(C/C(=C\C=O)OC)C(=O)N2[C@H](C(C)C)C(=O)N1` the IC50 (Influenza A virus) was 50 µM.

Work on `C=CC(C)(C)c1[nH]c2c(CC=C(C)C)cc(CC=C(C)C)cc2c1C[C@@H]1NC(=O)C(=C)NC1=O` yielded an IC50 (A549) of 1.43 µM and an IC50 (Bel-7402) of 4.2 µM.

For `C[C@@H]1OC(=O)[C@@H](O)[C@@H](C)OC(=O)[C@H](C)[C@H]1O`, the IC50 (K562) was 1.36 µM.

With `Cc1oc2cc3cc(O)cc(O)c3c(O)c2c(=O)c1C` the inhibition at 10 µg/mL (Rhizoctonia solani) was 50.2%.
